Reference: US20180117159A1, “Method for producing solid formulations with improved dissolution by annealing with an adjuvant” (priority 2016, published 2018)

Key:
Type in all cases: physicochemical
[1] = dissolution, USP Type II (paddle) apparatus, 150 mg formulation in 500 mL phosphate buffer pH 2.5 at 37° C.; settings: pH 2.5 buffer, 30 minutes
Description: Dissolution experiments were done using a USP Type II (paddle type) apparatus, dissolving 150 mg of formulation in 500 mL of water buffered to a pH of 2.5 using phosphate buffer at 37° C. This corresponded to 15 mg of indomethacin per 500 mL of dissolution medium for the 10% indomethacin formulation, and 30 mg of indomethacin per 500 mL of dissolution medium for the 20% indomethacin formulation. In addition, pure indomethacin was dissolved in a similar USP type II apparatus for 30 minutes for comparison. […]

[2] = solubility of indomethacin in aqueous buffer at pH 2.5 (excess solid, stirred, 20 nm filtered, HPLC)
Description: In addition to Examples 1-6, other experiments were done in which the solubility of indomethacin in aqueous buffer at pH 2.5 was determined. This was done by placing an excess amount of indomethacin solid (approximately 100 mg) in 20 mL of the buffer and stirring at a constant temperature of 37° C. for three days, after which an aliquot was taken and filtered through a Watman Anotop-10 20 nm filter, then assayed by HPLC for the dissolved indomethacin concentration in the solution. Subsequently, the temperature of the remaining indomethacin-buffer mixture was raised to approximately 95° C. and kept at that temperature with stirring for an additional 24 hours. After 24 hours, the dissolved indomethacin concentration was again determined by taking an aliquot, filtering through a 20 nm Anotop-10 filter, and assaying by HPLC.

[3] = differential scanning calorimetry of annealed indomethacin-PVP mixtures (absence of melting endotherm = all drug dissolved)
Description: Binary physical mixtures of the drug indomethacin and the polymer PVP (polyvinylpyrrolidone K29/32), both used as received, were mixed in various ratios, so the drug weight fraction ranged from 2.5-30% w/w (compared to the total physical mixture). Mixing was done for 15 minutes using a mortar and pestle. Solid solutions were then prepared by annealing and annealing with an adjuvant.
Annealing was done by transferring weighed samples of the physical mixtures into glass vials, which were then stored in an oven without inducing a vacuum at 130° C. for 6 days to equilibrate and allow the indomethacin to distribute and dissolve in the PVP. After annealing, the samples were allowed to cool to room temperature.
Annealing with an adjuvant was done by transferring weighed amounts of the physical mixtures into glass vials, then adding the adjuvant ethanol dropwise to the surface of the physical mixture in each vial in an adjuvant weight equal to approximately 25% of each dry drug-polymer physical mixture sample. No mixing of the adjuvant and physical mixture was done after adding the ethanol drops. The drug, polymer and adjuvant were then allowed to anneal in an oven at 70° C., with some samples annealing for 4 hours, some for 8 hours and some for 12 hours. After annealing with an adjuvant for each specified time, the samples were allowed to cool to room temperature. […]

Q: Which results are given for `COc1ccc2c(c1)c(CC(=O)O)c(C)n2C(=O)c1ccc(Cl)cc1` [indomethacin]?
A: dissolution in the aqueous buffer compared with indomethacin in physical mixtures with PVP [1]: much slower; estimate for the solubility of indomethacin in the aqueous buffer ([2]; 37° C., pH 2.5, estimate from solubility experiment and Example 1 dissolution): one to two; solubility at 3 days ([2]; aqueous buffer, thermodynamic from solid, pH 2.5, 37° C., after three days stirring, read-out: dissolved indomethacin concentration (solubility) in aqueous buffer): < 1 µg/mL; solubility ([2]; aqueous buffer, thermodynamic from solid, pH 2.5, three days at 37° C. plus an additional day at 95° C., read-out: dissolved indomethacin concentration (solubility) in aqueous buffer): ~27 µg/mL; dissolved indomethacin concentration (solubility) in aqueous buffer ([2]; pH 2.5, 37° C., after three days stirring): below one; indomethacin concentration in PVP up to which all of the drug dissolved (no melting endotherm by DSC) ([3]; annealed with ethanol adjuvant (about 25% of mixture weight) for 12 hours at 70° C.): approximately 15 % by weight; indomethacin concentration in PVP up to which all of the drug dissolved (no melting endotherm by DSC) ([3]; annealed without an adjuvant for 6 days at 130° C.): approximately 15 % by weight
